The record followed here is US20250059220A1, “SUBSTITUTED BENZOTHIOPHENE DERIVATIVES AND METHODS OF USE THEREOF” (Merck Sharp & Dohme LLC, priority 2021, published 2025).

One assay addresses human PTPN1 (1-435) (Homo sapiens (Human), UniProt P18031). As to the kind of experiment: Human PTPN1 Biochemical Assay. The following applies: DiFMUP substrate, read-out: PTP1B IC50. In a few lines: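 Read-out is DiFMUP hydrolysis fluorescence (360 nm excitation, 460 nm emission) after 1 h at room temperature, following 30 min enzyme–compound preincubation.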
Another assay has as its target human PTPN2 (1-387) (Homo sapiens (Human), UniProt P17706). Kind of assay: Human PTPN2 Biochemical Assay. Particulars: DiFMUP substrate. In a few lines: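 Human PTPN2 (1-387) preincubated 30 min at RT with compound (10-point 3-fold series) in Tris pH 7.4 buffer with 0.5 mM DTT, then DiFMUP substrate added for 1 h at RT. Fluorescence at ex 360/em 460 nm, normalised to no-enzyme and enzyme controls; EC50 from 4-parameter fit.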

Chain of human PTPN1 (1-435) (P18031 whole entry): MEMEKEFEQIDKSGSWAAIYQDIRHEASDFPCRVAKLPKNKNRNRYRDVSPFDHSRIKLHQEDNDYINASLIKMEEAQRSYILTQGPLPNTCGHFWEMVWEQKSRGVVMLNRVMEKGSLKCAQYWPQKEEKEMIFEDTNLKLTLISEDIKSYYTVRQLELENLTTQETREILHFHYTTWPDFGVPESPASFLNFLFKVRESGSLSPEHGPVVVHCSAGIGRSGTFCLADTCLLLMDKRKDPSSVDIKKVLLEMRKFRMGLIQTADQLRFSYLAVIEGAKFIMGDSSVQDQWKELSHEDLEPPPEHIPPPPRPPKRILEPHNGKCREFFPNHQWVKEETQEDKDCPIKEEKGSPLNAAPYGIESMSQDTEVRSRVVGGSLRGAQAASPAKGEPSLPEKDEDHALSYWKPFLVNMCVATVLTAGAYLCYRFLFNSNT
Chain of human PTPN2 (1-387) (P17706 other isoform, or with tags, fused parts or gaps): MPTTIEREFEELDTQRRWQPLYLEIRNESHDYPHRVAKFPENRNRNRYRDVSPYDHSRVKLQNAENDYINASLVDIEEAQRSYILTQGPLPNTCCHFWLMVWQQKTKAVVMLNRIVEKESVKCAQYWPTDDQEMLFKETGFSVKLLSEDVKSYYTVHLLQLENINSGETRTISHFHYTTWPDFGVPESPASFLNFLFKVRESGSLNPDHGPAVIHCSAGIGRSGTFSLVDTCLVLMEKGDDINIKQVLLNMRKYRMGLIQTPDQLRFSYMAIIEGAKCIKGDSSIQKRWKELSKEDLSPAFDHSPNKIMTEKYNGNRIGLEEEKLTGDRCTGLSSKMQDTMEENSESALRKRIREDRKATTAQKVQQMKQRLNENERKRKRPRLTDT

For orientation: IC50 means the concentration at which inhibition is half-maximal. As to `Cc1c(C(F)(F)P(=O)(O)O)sc2c(OCCCS(C)(=O)=O)cc(-c3nc[nH]n3)cc12` [Compound 436], the results for the IC50 on human PTPN1 (1-435) and against human PTPN2 (1-387) were 6.7 nM and 6.6 nM, respectively.
Regarding `CCC(NC(=O)c1ccc2sc(C(F)(F)P(=O)(O)O)c(Br)c2c1)c1nccs1` (stereo not drawn) [Compound 105], the IC50 on human PTPN1 (1-435) stood at 5140 nM; against human PTPN2 (1-387), 5780 nM.
The like results for `COc1cccc(NC(=O)c2ccc3sc(C(F)(F)P(=O)(O)O)c(C#N)c3c2)c1` [Compound 5] were, in that order, 1130 nM and 896 nM.
In the same order, the values of `Cc1c(C(F)(F)P(=O)(O)O)sc2c(OCC3CC3(F)F)cc(C(N)=O)cc12` (stereo not drawn) [Compound 435] are 207 nM and 130 nM.
In the case of `NC(=O)c1cc(OCC2CC2(F)F)c2sc(C(F)(F)P(=O)(O)O)c(Br)c2c1` (stereo not drawn) [Compound 250], the figures for the IC50 on human PTPN1 (1-435) and at human PTPN2 (1-387) were 69.7 nM and 54.1 nM, respectively.
As to `CC(C)CCOc1cc(C(N)=O)cc2c(Br)c(C(F)(F)P(=O)(O)O)sc12` [Compound 254], the IC50 stood at 155 nM at human PTPN1 (1-435) and 111 nM at human PTPN2 (1-387).
The like results for `N#CCCNC(=O)c1ccc2sc(C(F)(F)P(=O)(O)O)c(C#N)c2c1` [Compound 6] were, in that order, 6050 nM and 4640 nM.
Regarding `CS(=O)(=O)c1ccc(COc2cc(C(N)=O)cc3c(Br)c(C(F)(F)P(=O)(O)O)sc23)cn1` [Compound 379], the IC50 is 5.2 nM on human PTPN1 (1-435) and 3.98 nM against human PTPN2 (1-387).
In the same order, the values of `NC(=O)c1cc(OCc2ccc(-c3ccncc3)cc2)c2sc(C(F)(F)P(=O)(O)O)c(Br)c2c1` [Compound 402] are 59.5 nM and 10.1 nM.
For `CS(=O)(=O)NCc1cc(OCCCC(F)(F)F)c2sc(C(F)(F)P(=O)(O)O)c(Br)c2c1` [Compound 450, ((3-bromo-5-(methylsulfonamidomethyl)-7-(4,4,4-trifluorobutoxy)benzo[b]thiophen-2-yl)difluoromethyl)phosphonic acid], the results for the IC50 at human PTPN1 (1-435) and on human PTPN2 (1-387) were 175 nM and 227 nM, respectively.
The like results for `Cc1cnn(CCNC(=O)c2ccc3sc(C(F)(F)P(=O)(O)O)c(Br)c3c2)c1` [Compound 149] were, in that order, 3130 nM and 6010 nM.
The like results for `O=C(Nc1ccc(Sc2ccccc2)nc1)c1ccc2sc(C(F)(F)P(=O)(O)O)c(Br)c2c1` [Compound 100] were, in that order, 540 nM and 682 nM.
In the same order, the values of `O=P(O)(O)C(F)(F)c1sc2c(OCCCC(F)(F)F)cccc2c1Br` [Compound 410, ((3-bromo-7-(4,4,4-trifluorobutoxy)benzo[b]thiophen-2-yl)difluoromethyl)phosphonic acid] are 281 nM and 225 nM.
Take `O=P(O)(O)C(F)(F)c1sc2ccc(-c3ncc[nH]3)cc2c1Br` [Compound 228, ((3-bromo-5-(1H-imidazol-2-yl)benzo[b]thiophen-2-yl)difluoromethyl)phosphonic acid]: the figures for the IC50 on human PTPN1 (1-435) and on human PTPN2 (1-387) were 1850 nM and 1610 nM, respectively.
The like results for `CC(C)(O)CCOc1ccc2c(Br)c(C(F)(F)P(=O)(O)O)sc2c1` [Compound 302, ((3-bromo-6-(3-hydroxy-3-methylbutoxy)benzo[b]thiophen-2-yl)difluoromethyl)phosphonic acid] were, in that order, 37900 nM and 43700 nM.
In the case of `O=C(NC1CCN(Cc2ccccc2)C1)c1ccc2sc(C(F)(F)P(=O)(O)O)c(Br)c2c1` (stereo not drawn) [Compound 67], the IC50 on human PTPN1 (1-435) was found to be 3180 nM; at human PTPN2 (1-387), 4890 nM.
The like results for `CCN1C(=O)CCC12C[C@H]2CCNC(=O)c1ccc2sc(C(F)(F)P(=O)(O)O)c(Br)c2c1` (stereo partly drawn) [Compound 85] were, in that order, 4670 nM and 4540 nM.
In the same order, the values of `NC(=O)c1cc(OCCC2CCNS2(=O)=O)c2sc(C(F)(F)P(=O)(O)O)c(Br)c2c1` (single isomer, unassigned) [Compound 461, (R or S)-((3-bromo-5-carbamoyl-7-(2-(1,1-dioxidoisothiazolidin-5-yl)ethoxy)benzo[b]thiophen-2-yl)difluoromethyl)phosphonic acid] are 21.1 nM and 22.5 nM.
